# Measured values as given in patent US8541418B2, “Inhibitors of polo-like kinase” (Elan Pharmaceutical, Inc., priority 2009, dated 2013).
# Legend:
# Format in all cases: biochemical
# [1] = molecular target: PLK1 (Homo sapiens, UniProt P53350); assay: PLK TR-FRET peptide assay, PLK1; conditions: GST-PLK1, 60 min reaction
# [2] = molecular target: PLK2 (Homo sapiens, UniProt Q9NYY3); assay: PLK TR-FRET peptide assay, PLK2; conditions: for IC50: PLK TR-FRET peptide assay, GST-PLK2, 60 min reaction, read-out: Plk2 IC50; for relative PLK2 activity of the enantiomers: compared with the opposite enantiomer
# [3] = molecular target: PLK3 (Homo sapiens, UniProt Q9H4B4); assay: PLK TR-FRET peptide assay, PLK3; conditions: GST-PLK3, 15 min reaction, read-out: Plk3 IC50
# PLK3, sequence (Q9H4B4 whole entry): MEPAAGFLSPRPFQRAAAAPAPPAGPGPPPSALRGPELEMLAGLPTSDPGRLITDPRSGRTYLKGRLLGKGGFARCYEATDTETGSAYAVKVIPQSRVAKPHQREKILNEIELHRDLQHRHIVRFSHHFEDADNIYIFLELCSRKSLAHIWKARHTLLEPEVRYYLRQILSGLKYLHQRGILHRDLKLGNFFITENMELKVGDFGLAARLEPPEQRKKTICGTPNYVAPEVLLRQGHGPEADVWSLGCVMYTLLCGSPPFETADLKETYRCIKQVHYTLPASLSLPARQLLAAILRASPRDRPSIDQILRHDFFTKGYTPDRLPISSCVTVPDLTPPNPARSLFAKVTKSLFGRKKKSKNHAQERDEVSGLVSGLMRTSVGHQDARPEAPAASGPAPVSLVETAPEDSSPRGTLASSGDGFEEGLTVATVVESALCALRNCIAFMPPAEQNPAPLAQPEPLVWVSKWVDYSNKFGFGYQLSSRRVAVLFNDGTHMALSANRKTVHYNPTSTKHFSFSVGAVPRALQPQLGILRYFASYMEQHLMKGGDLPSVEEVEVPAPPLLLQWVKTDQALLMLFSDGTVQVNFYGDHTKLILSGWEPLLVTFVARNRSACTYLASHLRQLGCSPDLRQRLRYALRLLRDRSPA
# PLK1, sequence (P53350 whole entry): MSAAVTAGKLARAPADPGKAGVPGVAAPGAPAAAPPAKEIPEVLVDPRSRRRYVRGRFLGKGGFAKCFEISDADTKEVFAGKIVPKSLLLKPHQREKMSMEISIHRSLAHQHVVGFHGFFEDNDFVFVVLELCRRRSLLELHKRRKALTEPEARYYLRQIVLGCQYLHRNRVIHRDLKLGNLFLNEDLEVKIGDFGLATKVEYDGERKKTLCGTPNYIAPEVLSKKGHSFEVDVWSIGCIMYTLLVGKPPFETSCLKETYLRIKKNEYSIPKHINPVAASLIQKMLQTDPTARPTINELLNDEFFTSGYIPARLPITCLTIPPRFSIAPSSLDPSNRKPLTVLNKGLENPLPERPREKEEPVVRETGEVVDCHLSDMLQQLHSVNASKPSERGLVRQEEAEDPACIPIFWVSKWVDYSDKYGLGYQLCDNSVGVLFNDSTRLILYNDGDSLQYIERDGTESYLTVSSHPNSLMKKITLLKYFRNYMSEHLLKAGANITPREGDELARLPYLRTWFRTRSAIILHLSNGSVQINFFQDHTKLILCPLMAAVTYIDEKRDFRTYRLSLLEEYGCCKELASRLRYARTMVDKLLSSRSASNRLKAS
# PLK2, sequence (Q9NYY3 whole entry): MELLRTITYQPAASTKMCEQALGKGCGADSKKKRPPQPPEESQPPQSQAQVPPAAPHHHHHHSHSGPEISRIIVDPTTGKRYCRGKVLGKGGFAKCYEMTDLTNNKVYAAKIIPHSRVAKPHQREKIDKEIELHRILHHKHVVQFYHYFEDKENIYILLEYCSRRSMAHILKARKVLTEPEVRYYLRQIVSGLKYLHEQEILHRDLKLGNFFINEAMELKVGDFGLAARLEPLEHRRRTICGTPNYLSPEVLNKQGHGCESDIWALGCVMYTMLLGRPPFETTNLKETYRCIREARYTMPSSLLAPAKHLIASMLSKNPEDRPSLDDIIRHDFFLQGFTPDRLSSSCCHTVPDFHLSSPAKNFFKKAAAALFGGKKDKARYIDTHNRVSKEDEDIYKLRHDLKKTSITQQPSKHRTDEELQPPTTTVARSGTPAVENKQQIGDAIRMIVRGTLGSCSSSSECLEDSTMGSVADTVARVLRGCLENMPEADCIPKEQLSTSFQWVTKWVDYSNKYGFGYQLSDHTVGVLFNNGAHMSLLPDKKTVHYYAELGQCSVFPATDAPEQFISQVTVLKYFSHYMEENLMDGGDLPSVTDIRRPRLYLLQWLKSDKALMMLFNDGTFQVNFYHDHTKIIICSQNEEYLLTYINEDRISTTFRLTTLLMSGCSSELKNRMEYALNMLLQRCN
SMILES,IC50 [1],IC50 [2],IC50 [3],relative PLK2 activity of the enantiomers [2]
"CC[C@@H]1C(=O)N(C)c2cnc(-n3ccnc3-c3ccc(F)cn3)nc2N1C1CCC1 [Example 224, (R)-8-cyclobutyl-7-ethyl-2-(2-(5-fluoropyridin-2-yl)-1H-imidazol-1-yl)-5-methyl-7,8-dihydropteridin-6(5H)-one]",1 to 10 µM,< 1 µM,10 to 50 µM,–
"CC[C@@]12CCCN1c1nc(-n3ccnc3-c3cccc(F)c3)ncc1N(C)C2=O [Example 225, (S)-6a-ethyl-2-(2-(3-fluorophenyl)-1H-imidazol-1-yl)-5-methyl-6a,7,8,9-tetrahydropyrrolo[2,1-h]pteridin-6(5H)-one]",1 to 10 µM,< 1 µM,10 to 50 µM,–
"CC[C@@]12CCCN1c1nc(-n3ccnc3-c3cc(F)cc(F)c3)ncc1N(C)C2=O [Example 226, (S)-2-(2-(3,5-difluorophenyl)-1H-imidazol-1-yl)-6a-ethyl-5-methyl-6a,7,8,9-tetrahydropyrrolo[2,1-h]pteridin-6(5H)-one]",10 to 50 µM,< 1 µM,10 to 50 µM,–
"CC[C@@H]1C(=O)N(C)c2cnc(-n3ccnc3-c3ccc(C#N)cc3)nc2N1C(C)C [Example 227, (R)-4-(1-(7-ethyl-8-isopropyl-5-methyl-6-oxo-5,6,7,8-tetrahydropteridin-2-yl)-1H-imidazol-2-yl)benzonitrile]",10 to 50 µM,< 1 µM,10 to 50 µM,–
"CC[C@@H]1C(=O)N(C)c2cnc(-n3ccnc3-c3cccc(C#N)c3)nc2N1C(C)C [Example 228, (R)-3-(1-(7-ethyl-8-isopropyl-5-methyl-6-oxo-5,6,7,8-tetrahydropteridin-2-yl)-1H-imidazol-2-yl)benzonitrile]",1 to 10 µM,< 1 µM,10 to 50 µM,–
"CC[C@@H]1C(=O)N(C)c2cnc(-n3ccnc3-c3ccc(F)c(F)c3)nc2N1C1CC(F)C1 (stereo partly drawn) [Example 229, (R)-2-(2-(3,4-difluorophenyl)-1H-imidazol-1-yl)-7-ethyl-8-(3-fluorocyclobutyl)-5-methyl-7,8-dihydropteridin-6(5H)-one]",1 to 10 µM,< 1 µM,1 to 10 µM,–
"CC[C@@H]1C(=O)N(C)c2cnc(-n3ccnc3C3=CCCC3)nc2N1C1CCCC1 [Example 231, (R)-2-(2-cyclopentenyl-1H-imidazol-1-yl)-8-cyclopentyl-7-ethyl-5-methyl-7,8-dihydropteridin-6(5H)-one]",1 to 10 µM,< 1 µM,1 to 10 µM,–
"CC[C@@H]1C(=O)N(C)c2cnc(-n3ccnc3-c3ccc(F)c(Cl)c3)nc2N1C1CCOC1 (stereo partly drawn) [Example 232, (7R)-2-(2-(3-chloro-4-fluorophenyl)-1H-imidazol-1-yl)-7-ethyl-5-methyl-8-(tetrahydrofuran-3-yl)-7,8-dihydropteridin-6(5H)-one]",1 to 10 µM,< 1 µM,1 to 10 µM,–
"CC[C@@H]1C(=O)N(C)c2cnc(-n3ccnc3-c3ccncc3)nc2N1CCC(F)(F)F [Example 234, (R)-7-ethyl-5-methyl-2-(2-(pyridin-4-yl)-1H-imidazol-1-yl)-8-(3,3,3-trifluoropropyl)-7,8-dihydropteridin-6(5H)-one]",1 to 10 µM,< 1 µM,10 to 50 µM,–
"CC[C@@]12CCCN1c1nc(-n3ncnc3C#Cc3ccccc3)ncc1N(C)C2=O [Example 235, (S)-6a-ethyl-5-methyl-2-(5-(phenylethynyl)-1H-1,2,4-triazol-1-yl)-6a,7,8,9-tetrahydropyrrolo[2,1-h]pteridin-6(5H)-one]",> 50 µM,10 to 50 µM,10 to 50 µM,–
"CC[C@@]12CCCN1c1nc(-n3ccnc3-c3cccc(Cl)c3)ncc1N(C)C2=O [Example 236, (S)-2-(2-(3-chlorophenyl)-1H-imidazol-1-yl)-6a-ethyl-5-methyl-6a,7,8,9-tetrahydropyrrolo[2,1-h]pteridin-6(5H)-one]",1 to 10 µM,< 1 µM,10 to 50 µM,–
"CC[C@@H]1C(=O)N(C)c2cnc(-n3ccnc3-c3ccc(F)c(F)c3)nc2N1C1CCC(F)(F)C1 (stereo partly drawn) [Example 237, (7R)-8-(3,3-difluorocyclopentyl)-2-(2-(3,4-difluorophenyl)-1H-imidazol-1-yl)-7-ethyl-5-methyl-7,8-dihydropteridin-6(5H)-one]",< 1 µM,< 1 µM,1 to 10 µM,–
"CC[C@@]12CCCN1c1nc(-n3ccnc3-c3cnc4ccccc4c3)ncc1N(C)C2=O [Example 241, (S)-6a-ethyl-5-methyl-2-(2-(quinolin-3-yl)-1H-imidazol-1-yl)-6a,7,8,9-tetrahydropyrrolo[2,1-h]pteridin-6(5H)-one]",10 to 50 µM,< 1 µM,> 50 µM,–
"CC[C@@H]1C(=O)N(C)c2cnc(-n3ccnc3-c3ccc(F)cn3)nc2N1CCC(F)(F)F [Example 244, (R)-7-ethyl-2-(2-(5-fluoropyridin-2-yl)-1H-imidazol-1-yl)-5-methyl-8-(3,3,3-trifluoropropyl)-7,8-dihydropteridin-6(5H)-one]",10 to 50 µM,< 1 µM,> 50 µM,–
"CC[C@@]12CCCCN1c1nc(-n3ccnc3-c3cc(F)cc(F)c3)ncc1N(C)C2=O [Example 249, (S)-2-(2-(3,5-difluorophenyl)-1H-imidazol-1-yl)-6a-ethyl-5-methyl-7,8,9,10-tetrahydro-5H-pyrido[2,1-h]pteridin-6(6aH)-one]",1 to 10 µM,< 1 µM,> 50 µM,more active compound
"CC[C@]12CCCCN1c1nc(-n3ccnc3-c3cc(F)cc(F)c3)ncc1N(C)C2=O [Example 250, (R)-2-(2-(3,5-difluorophenyl)-1H-imidazol-1-yl)-6a-ethyl-5-methyl-7,8,9,10-tetrahydro-5H-pyrido[2,1-h]pteridin-6(6aH)-one]",> 50 µM,> 50 µM,> 50 µM,–
"CC[C@@]12CCCN1c1nc(-n3ccnc3-c3cccc(OC(F)(F)F)c3)ncc1N(C)C2=O [Example 251, (S)-6a-ethyl-5-methyl-2-(2-(3-(trifluoromethoxy)phenyl)-1H-imidazol-1-yl)-6a,7,8,9-tetrahydropyrrolo[2,1-h]pteridin-6(5H)-one]",10 to 50 µM,< 1 µM,> 50 µM,–
"CC[C@@H]1C(=O)N(C)c2cnc(-n3ccnc3-c3cccc(F)c3F)nc2N1C1CCOC1 (stereo partly drawn) [Example 253, (7R)-2-(2-(2,3-difluorophenyl)-1H-imidazol-1-yl)-7-ethyl-5-methyl-8-(tetrahydrofuran-3-yl)-7,8-dihydropteridin-6(5H)-one]",< 1 µM,< 1 µM,1 to 10 µM,–
"CC[C@@H]1C(=O)N(C)c2cnc(-n3ccnc3-c3cccc(F)c3F)nc2N1CCC(F)(F)F [Example 254, (R)-2-(2-(2,3-difluorophenyl)-1H-imidazol-1-yl)-7-ethyl-5-methyl-8-(3,3,3-trifluoropropyl)-7,8-dihydropteridin-6(5H)-one]",< 1 µM,< 1 µM,1 to 10 µM,–
"CC[C@@]12CCC(=O)N1c1nc(-n3ccnc3-c3ccccc3)ncc1N(C)C2=O [Example 258, (S)-6a-ethyl-5-methyl-2-(2-phenyl-1H-imidazol-1-yl)-7,8-dihydropyrrolo[2,1-h]pteridine-6,9(5H,6aH)-dione]",> 50 µM,10 to 50 µM,> 50 µM,–
"CC[C@@]12CCCCN1c1nc(-n3ccnc3-c3cccc(F)c3F)ncc1N(C)C2=O [Example 259, (S)-2-(2-(2,3-difluorophenyl)-1H-imidazol-1-yl)-6a-ethyl-5-methyl-7,8,9,10-tetrahydro-5H-pyrido[2,1-h]pteridin-6(6aH)-one]",1 to 10 µM,< 1 µM,1 to 10 µM,more active compound
"CC[C@@H]1C(=O)N(C)c2cnc(-n3ccnc3-c3ccc(F)cc3F)nc2N1C1CC(F)(F)C1 [Example 260, (R)-8-(3,3-difluorocyclobutyl)-2-(2-(2,4-difluorophenyl)-1H-imidazol-1-yl)-7-ethyl-5-methyl-7,8-dihydropteridin-6(5H)-one]",1 to 10 µM,< 1 µM,10 to 50 µM,–
"CC[C@]12CCCCN1c1nc(-n3ccnc3-c3cccc(F)c3F)ncc1N(C)C2=O [Example 261, (R)-2-(2-(2,3-difluorophenyl)-1H-imidazol-1-yl)-6a-ethyl-5-methyl-7,8,9,10-tetrahydro-5H-pyrido[2,1-h]pteridin-6(6aH)-one]",> 50 µM,1 to 10 µM,> 50 µM,–
"CC[C@@]12CCCCN1c1nc(-n3ccnc3-c3ccccc3)ncc1N(C)C2=O [Example 262, (S)-6a-ethyl-5-methyl-2-(2-phenyl-1H-imidazol-1-yl)-7,8,9,10-tetrahydro-5H-pyrido[2,1-h]pteridin-6(6aH)-one]",1 to 10 µM,< 1 µM,1 to 10 µM,more active compound
"CC[C@]12CCCCN1c1nc(-n3ccnc3-c3ccccc3)ncc1N(C)C2=O [Example 263, (R)-6a-ethyl-5-methyl-2-(2-phenyl-1H-imidazol-1-yl)-7,8,9,10-tetrahydro-5H-pyrido[2,1-h]pteridin-6(6aH)-one]",> 50 µM,10 to 50 µM,> 50 µM,–
"CC[C@@]12CCCCN1c1nc(-n3ccnc3-c3cccc(F)c3)ncc1N(C)C2=O [Example 264, (S)-6a-ethyl-2-(2-(3-fluorophenyl)-1H-imidazol-1-yl)-5-methyl-7,8,9,10-tetrahydro-5H-pyrido[2,1-h]pteridin-6(6aH)-one]",1 to 10 µM,< 1 µM,10 to 50 µM,more active compound
"CC[C@]12CCCCN1c1nc(-n3ccnc3-c3cccc(F)c3)ncc1N(C)C2=O [Example 265, (R)-6a-ethyl-2-(2-(3-fluorophenyl)-1H-imidazol-1-yl)-5-methyl-7,8,9,10-tetrahydro-5H-pyrido[2,1-h]pteridin-6(6aH)-one]",> 50 µM,10 to 50 µM,> 50 µM,–
